Among the test systems are HCC-2998 colon; NCI-H226 lung; NCI-H460 lung; 786-0 renal; K-562 leukemia; U251 CNS; SW-620 colon; IGROV1 ovarian; MALME-3M melanoma; SF-268 CNS; SK-MEL-28 melanoma; SN12C renal; OVCAR-8 ovarian; MCF7 breast.
Assay in all cases: inhibition of tumour cell growth, NCI panel, 48 h

This is an account of results in PubChem BioAssay (NCI).

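All cell lines were grown in 96-well plates and treated with compound for 48 hours. TGI: concentration producing complete growth inhibition.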 Where a SMILES comes first, the peptide text is derived from it. The star is where a group is joined. Boc = CC(C)(C)OC(=O)*; Bn = c1ccc(C*)cc1 Bounds are passed on as bounds.

Regarding `O=C(Nc1ccccc1[N+](=O)[O-])C(=O)C(C(=O)c1ccccc1-c1ccccc1)C1OC(=O)c2ccccc21` (stereo unspecified), the TGI with HCC-2998 colon was determined as 28.2 µM; in the assay with NCI-H226 lung, 21.3 µM; in the assay with NCI-H460 lung, 30.7 µM; in the assay on 786-0 renal, 28.6 µM; in the assay on K-562 leukemia, 60.6 µM; with U251 CNS, 24.2 µM. The TGI in the assay with SW-620 colon was found to be 36.7 µM; in the assay with IGROV1 ovarian it was 51.3 µM; in the assay with MALME-3M melanoma it was 29.9 µM; in the assay on SF-268 CNS, 41 µM; in the assay with SK-MEL-28 melanoma, 37.7 µM; with SN12C renal, 30.3 µM. In addition, the TGI with OVCAR-8 ovarian amounted to 44.1 µM.

For `Cc1cc(C)nc(NS(=O)(=O)c2ccc(Nc3nnc(/C=C/c4c(O)ccc5ccccc45)c(=O)n3N)cc2)n1`, the TGI in the assay on 786-0 renal is 62.9 µM; with K-562 leukemia it was > 100 µM; with SW-620 colon, > 100 µM; in the assay with IGROV1 ovarian, > 100 µM; in the assay on MALME-3M melanoma it was 92.7 µM; in the assay with SF-268 CNS it was > 100 µM. Besides, the TGI in the assay with SN12C renal was 73.2 µM; with MCF7 breast it was 45.7 µM; in the assay with OVCAR-8 ovarian it was 87.2 µM.

`O=C1COc2cc3c(cc2N1)SCCC(=O)N3`: the TGI in the assay with HCC-2998 colon, in the assay with NCI-H226 lung, with 786-0 renal, in the assay with K-562 leukemia, with SW-620 colon and in the assay with IGROV1 ovarian was > 100 µM throughout. Moreover, the TGI with MALME-3M melanoma, in the assay with SF-268 CNS, in the assay on SK-MEL-28 melanoma, in the assay on SN12C renal and with OVCAR-8 ovarian was > 100 µM in each case.

On to `CN(C)c1cccc(/C=C(\C#N)c2ccccc2)c1`, for which the TGI was 7.28 µM with HCC-2998 colon; 24.6 µM with NCI-H226 lung; 12.5 µM in the assay on NCI-H460 lung; > 60.9 µM with 786-0 renal; > 14.4 µM with K-562 leukemia; 27.1 µM in the assay with U251 CNS. For the same molecule, the TGI was > 56 µM in the assay on SW-620 colon; > 72.5 µM with IGROV1 ovarian; > 73.7 µM with MALME-3M melanoma; > 100 µM in the assay on SF-268 CNS; > 100 µM in the assay on SK-MEL-28 melanoma; > 100 µM in the assay on SN12C renal. In the assay on OVCAR-8 ovarian, the TGI was 40 µM.

Turning to `C=C(C)CCN(C(=O)OC(C)(C)C)c1cc(C(C)C)co1`, the TGI in the assay with HCC-2998 colon, in the assay on NCI-H226 lung, in the assay with 786-0 renal, with K-562 leukemia, in the assay on U251 CNS and in the assay with SW-620 colon was > 100 µM throughout. In addition, the TGI with IGROV1 ovarian is > 100 µM; with SF-268 CNS it was 55.7 µM; in the assay with SK-MEL-28 melanoma it was > 100 µM; in the assay with SN12C renal, > 100 µM; with MCF7 breast it was > 100 µM; in the assay with OVCAR-8 ovarian it was > 100 µM.

With `COC(=O)C1Cc2c([nH]c3ccccc23)-c2[nH]c3ccccc3c2CC(NC(C)=O)C(=O)NCC(=O)NCC(=O)N1` (stereo unspecified), the TGI with NCI-H226 lung, in the assay on NCI-H460 lung, in the assay with 786-0 renal, with K-562 leukemia, with U251 CNS and with SW-620 colon was > 100 µM throughout. Further, the TGI with IGROV1 ovarian, with MALME-3M melanoma, in the assay on SF-268 CNS, with SK-MEL-28 melanoma, in the assay on SN12C renal and in the assay on OVCAR-8 ovarian was > 100 µM each time.

As for `COc1ccc2oc(=O)c(-c3csc(-c4ccccc4)n3)cc2c1`, the TGI in the assay on HCC-2998 colon is > 100 µM; with NCI-H226 lung, > 100 µM; in the assay on NCI-H460 lung it was > 100 µM; with 786-0 renal it was 34.3 µM; in the assay with K-562 leukemia, > 100 µM; in the assay with U251 CNS, 52.4 µM. In addition, the TGI in the assay with SW-620 colon is > 100 µM; in the assay on IGROV1 ovarian, > 100 µM; in the assay on SF-268 CNS, 71.2 µM; in the assay with SK-MEL-28 melanoma it was > 100 µM; with MCF7 breast, > 100 µM.

With `COC(=O)C(CC(C)C)NC(=O)CNC(=O)C(Cc1ccc(OCc2ccccc2)cc1)NC(=O)C(COCc1ccccc1)NC(=O)OC(C)(C)C` (stereo unspecified) (Boc-S(Bn)Y(Bn)GL-OMe; configuration not given here), the TGI in the assay on NCI-H226 lung, in the assay on NCI-H460 lung, in the assay with 786-0 renal, in the assay with K-562 leukemia, with U251 CNS and in the assay with SW-620 colon was > 100 µM each time. Besides, the TGI in the assay with IGROV1 ovarian, in the assay with MALME-3M melanoma, in the assay with SF-268 CNS, with SK-MEL-28 melanoma, in the assay with SN12C renal and in the assay on MCF7 breast was > 100 µM each time. In the assay with OVCAR-8 ovarian, the TGI was > 100 µM.

On to `Cc1ccc(/C=C2\CCCCCC2=O)cc1`, for which the TGI in the assay with HCC-2998 colon, in the assay on NCI-H226 lung, in the assay with NCI-H460 lung, in the assay on 786-0 renal, in the assay on K-562 leukemia and in the assay on U251 CNS was > 100 µM throughout. Moreover, the TGI with SW-620 colon, in the assay with IGROV1 ovarian, in the assay on MALME-3M melanoma, with SF-268 CNS, in the assay on SK-MEL-28 melanoma and in the assay on SN12C renal was > 100 µM throughout.

Turning to `C=CCN(N=O)C(=O)N(CCCCC(NC(C)=O)C(=O)NCc1ccccc1)Cc1ccccc1` (stereo unspecified), the TGI in the assay on NCI-H226 lung is 60.7 µM; in the assay with NCI-H460 lung, > 100 µM; in the assay on 786-0 renal, > 100 µM; in the assay on K-562 leukemia, > 100 µM; with U251 CNS, > 100 µM; in the assay on SW-620 colon, > 100 µM. In addition, the TGI in the assay on IGROV1 ovarian was > 100 µM; with MALME-3M melanoma it was 58.9 µM; in the assay with SF-268 CNS it was > 100 µM; with SK-MEL-28 melanoma it was > 100 µM; in the assay on SN12C renal, > 100 µM; in the assay with OVCAR-8 ovarian it was > 100 µM.

For `CC(=O)OC1CC2C(C)(C)OC(=O)CC(OC(C)=O)[C@]2(C)C2CCC3(C)C(=CCC3c3ccoc3)[C@]12C` (stereo partly specified), the TGI with HCC-2998 colon is 52.4 µM; in the assay on NCI-H226 lung it was 69.6 µM; with NCI-H460 lung, > 100 µM; with 786-0 renal, > 100 µM; in the assay on K-562 leukemia, > 100 µM; with U251 CNS, > 100 µM. In addition, the TGI with SW-620 colon is > 100 µM; in the assay with IGROV1 ovarian it was 82.8 µM; with MALME-3M melanoma, 92.6 µM; in the assay with SF-268 CNS, > 100 µM; in the assay with SK-MEL-28 melanoma, > 100 µM; with SN12C renal, > 100 µM. The molecule also registered a TGI in the assay with OVCAR-8 ovarian of 87.1 µM.
